Calls of active or inactive are those of the source. No cut-off for these calls is given here.
How the values were obtained:
Format in all cases: cell-based
[1] = target: T1, Nuclear factor erythroid 2-related factor 2 (Homo sapiens) (UniProt Q16236); experiment: Activation of Nrf2 in human DLD1 cells assessed as increase of NQO1 protein level at 20 uM after 48 hrs by Western blot analysis; settings: DLD-1
T1 sequence (whole entry): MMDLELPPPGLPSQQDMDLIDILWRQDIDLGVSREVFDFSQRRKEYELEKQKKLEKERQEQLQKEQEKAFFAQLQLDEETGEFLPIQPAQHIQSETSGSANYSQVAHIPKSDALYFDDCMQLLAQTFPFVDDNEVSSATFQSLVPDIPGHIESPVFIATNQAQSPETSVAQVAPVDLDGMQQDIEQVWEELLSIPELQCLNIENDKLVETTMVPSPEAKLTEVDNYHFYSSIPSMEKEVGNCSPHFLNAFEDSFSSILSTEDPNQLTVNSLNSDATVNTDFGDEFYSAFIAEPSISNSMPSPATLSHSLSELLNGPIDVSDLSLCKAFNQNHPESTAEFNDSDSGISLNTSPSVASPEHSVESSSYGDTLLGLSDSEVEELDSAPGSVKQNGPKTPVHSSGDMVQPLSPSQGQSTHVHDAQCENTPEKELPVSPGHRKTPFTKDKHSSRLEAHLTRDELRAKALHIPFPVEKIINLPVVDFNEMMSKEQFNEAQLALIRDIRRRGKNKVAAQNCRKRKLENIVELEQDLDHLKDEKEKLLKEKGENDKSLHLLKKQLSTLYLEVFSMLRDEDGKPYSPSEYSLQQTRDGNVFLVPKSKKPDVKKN

[2] = target: T1, Nuclear factor erythroid 2-related factor 2 (Homo sapiens); experiment: Activation of Nrf2 in human DLD1 cells after 24 to 48 hrs by luciferase reporter gene assay; settings: DLD-1
[3] = target: T1, Nuclear factor erythroid 2-related factor 2 (Homo sapiens); experiment: Activation of Nrf2 in human DLD1 cells assessed as stabilization of Nrf2 protein at 20 uM after 48 hrs by Western blot analysis; settings: DLD-1
[4] = target: Kelch-like ECH-associated protein 1 (Homo sapiens) (UniProt Q14145); experiment: Binding affinity to human recombinant Kelch-DC domain of Keap1 (321 to 609) expressed in HEK293T cells assessed as covalent adduct formation with cysteines at 1 mM after 15 hrs by 2D-FIDA assay; settings: HEK-293T
Kelch-like ECH-associated protein 1 (Homo sapiens), sequence (Q14145 whole entry, the tested form may be a part): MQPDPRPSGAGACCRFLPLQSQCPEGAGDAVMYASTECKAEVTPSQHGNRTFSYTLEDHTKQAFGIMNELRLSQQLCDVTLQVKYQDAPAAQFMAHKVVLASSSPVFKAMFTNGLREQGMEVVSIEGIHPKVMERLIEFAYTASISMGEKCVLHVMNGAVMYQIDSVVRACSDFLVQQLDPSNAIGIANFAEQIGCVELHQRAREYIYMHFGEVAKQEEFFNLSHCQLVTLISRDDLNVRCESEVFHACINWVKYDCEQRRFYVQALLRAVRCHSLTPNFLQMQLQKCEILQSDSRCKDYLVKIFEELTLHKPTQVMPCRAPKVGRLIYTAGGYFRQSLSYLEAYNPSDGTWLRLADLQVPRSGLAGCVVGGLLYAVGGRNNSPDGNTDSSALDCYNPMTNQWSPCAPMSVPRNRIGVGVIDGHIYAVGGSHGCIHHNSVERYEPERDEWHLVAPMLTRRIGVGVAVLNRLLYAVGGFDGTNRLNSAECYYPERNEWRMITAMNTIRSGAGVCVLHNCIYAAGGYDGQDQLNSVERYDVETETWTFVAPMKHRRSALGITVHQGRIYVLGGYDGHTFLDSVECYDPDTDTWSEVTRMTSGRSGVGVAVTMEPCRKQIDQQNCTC

| Activity [1] | Activity [2] | Activity [3] | Activity [4] | SMILES |
| --- | --- | --- | --- | --- |
| Active | Dose-dependent effect | Active | Active | COC(=O)/C=C/C(=O)OC |
| – | Dose-dependent effect | – | – | COC(=O)/C=C/C(=O)O |
| Active | Dose-dependent effect | Active | inactive | COc1ccc(S(=O)(=O)Nc2ccc(NS(=O)(=O)c3ccc(OC)cc3)c3ccccc23)cc1 |

— ChEMBL document CHEMBL2401631, “Small molecules inhibit the interaction of Nrf2 and the Keap1 Kelch domain through a non-covalent mechanism” (Bioorg Med Chem, 2013)
